Results published in US20150001139A1, “REAL-TIME INTEGRITY MONITORING OF SEPARATION MEMBRANES” (THE REGENTS OF THE UNIVERSITY OF CALIFORNIA, priority 2013, published 2015).
Converted amounts (≈) assume the structure as drawn.

Assay: Preliminary evaluation of uranine fluorescence stability (pH, chlorine)
Assay type: physicochemical
Details: about 1-4 ppm of free chlorine
Method: Fluorescent molecular markers are subjected to screening criteria, including low toxicity, low background fluorescence in water, economic feasibility for long term use, and commercial availability. Screening criteria are also based on experiments, including stability with light exposure, strong fluorescent intensity, stability under various pH conditions, and stability under chlorine exposure.
Uranine stock solutions were prepared from reagent-grade uranine powder (Fisher Scientific, Pittsburgh, Pa.) dissolved in ultra-pure deionized water from a Milli-Q water purification system (Millipore Corp., San Jose, Calif.). RO desalting runs were conducted using low salinity potable tap water (average reported total dissolved solids (TDS) of about 265 mg/l, TOC of about 1.7 mg/l, and total hardness of about 113 mg/l as CaCO3).

Molecule | chlorine tolerance of fluorescence
O=C([O-])c1ccccc1-c1c2ccc(=O)cc-2oc2cc([O-])ccc12.[Na+].[Na+] [Uranine] | high level of chlorine tolerance

Same assay, conditions: typical RO process pH operating range, pH of about 6-8

Molecule | stability of fluorescence intensity with pH
O=C([O-])c1ccccc1-c1c2ccc(=O)cc-2oc2cc([O-])ccc12.[Na+].[Na+] [Uranine] | stable fluorescence intensity

Assay: not given
Details: cited from earlier work

Molecule | Solubility in Water
O=C(O)c1c(Cl)c(Cl)c(Cl)c(Cl)c1-c1c2cc(I)c(=O)c(I)c-2oc2c(I)c(O)c(I)cc12 [Bengal rose] | 100 mg/mL (≈ 103 mM)
O=C(O)c1ccccc1-c1c2cc([N+](=O)[O-])c(=O)c(Br)c-2oc2c(Br)c(O)c([N+](=O)[O-])cc12 [Eosin B] | 40 mg/mL (≈ 69 mM)
Cc1ccc(N2C(=O)c3cccc4c(N)c(S(=O)(=O)[O-])cc(c34)C2=O)cc1.[Na+] [Lissamine FF] | 40 mg/mL
O=S(=O)([O-])c1cc(O)c2ccc3c(S(=O)(=O)[O-])cc(S(=O)(=O)[O-])c4ccc1c2c34.[Na+].[Na+].[Na+] [Pyranine] | 178 mg/mL
CCN(CC)c1ccc2c(-c3ccc(S(=O)(=O)O)cc3S(=O)(=O)[O-])c3ccc(=[N+](CC)CC)cc-3oc2c1 [Sulforhodamine B] | 10 mg/mL (≈ 17.9 mM)
O=S(=O)([O-])c1ccccc1C=Cc1ccc(-c2ccc(C=Cc3ccccc3S(=O)(=O)[O-])cc2)cc1.[Na+].[Na+] [Tinopal CBS-X] | 25 mg/mL
Amidorhodamine G | very soluble
Erythrosine | 20 mg/mL
Lanaperl fast yellow | very soluble
Sodium naphtionate | 240 mg/mL
